In patent US20260109731A1, “NE[…] USE THEREOF” (HUNAN MINGRUI PHARMACEUTICAL CO., LTD., priority 2023, published 2026):
Read-outs that look alike come from different tables or passages of the source.

Legend:
[1] = Pharmacokinetic analysis of oral gavage administration in female rats; details: 12 mg/kg
Method: (§1) • Female SD rats (body weight: 200 g to 220 g) were purchased from BEIJING HFK BIOSCIENCE CO., LTD.
60 female SD rats were divided into two groups (Aoral and Boral), with 30 rats per group (5 rats per blood collection time point). The drugs Aoral and Boral were administered via oral gavage administration at 12 mg/kg each (about 1.6 mL of drug solution). Blood was collected from the orbital venous plexus at each time point (5 min, 30 min, 1 h, 2 h, 4 h, and 8 h) after administration, respectively, anticoagulated with heparin, and centrifuged, and then the plasma was separated and stored at −80° C. for later testing. At 8 h after blood collection, the animals were sacrificed, and the brain and Liver tissues were taken and stored at −80° C. for later testing.
(§2) 100 μL of plasma sample, 10 μL of internal standard solution (100 ng/mL testosterone D-3 solution), and 310 μL of acetonitrile were accurately measured, uniformly mixed by vortexing, and centrifuged (14000 rpm, 4° C.), and a resulting supernatant was taken and detected using UPLC-MS/MS (the analysis method was the same as that in pharmacokinetic analysis in mice).
(§3) About 100 mg of brain or liver tissue sample was taken, and accurately weighed. 100 μL of water and 400 μL acetonitrile were accurately added thereto, and a resulting mixture was subjected to homogenization. 100 μL of brain or liver tissue homogenate, 10 μL of internal standard solution (100 ng/mL testosterone D-3 solution), and 310 μL of acetonitrile were accurately measured, uniformly mixed by vortexing, and centrifuged (14000 rpm, 4° C.), and a resulting supernatant was taken and detected using UPLC-MS/MS (the analysis method was the same as that in pharmacokinetic analysis in mice).

[2] = In vitro phase I metabolic stability in male SD rat hepatic microsomes; assay type: in vitro ADME; details: male SD rat hepatic microsomes
Method: Phase I metabolic stability kit (purchased from HUIZHI HEYUAN BIOTECHNOLOGY (BEIJING) CO., LTD), with the following components of the product:
Positive substrate testosterone solution (10 mM): diluted with acetonitrile to prepare a 200 μM solution for later use; stop solution & internal standard (testosterone-D3): dissolved with acetonitrile to prepare a 5 ng/mL solution for later use.
• 1) all components of the kit were thawed in an ice bath and placed on ice for later use; • 2) an incubation system (taking 200 μL system as an example) was prepared:
• 3) 160 μL of pre-incubation solution B was added into the centrifuge tube containing 40 μL of pre-incubation solution A, uniform mixing was performed by pipetting three times, and the resulting mixture was immediately placed in a water bath at 37° C. for incubation and timing was started; • 4) at predetermined incubation time points (0, 5, 10, 15, 30, 45, 60 minutes), the incubation solution was quantitatively taken out, and 200 μL of stop solution (5 ng/mL testosterone-D3 in acetonitrile, pre-chilled at 4° C.) was added to terminate the reaction (stop solution volume: incubation system volume=1:1). Experimental samples were prepared in triplicate at each time point.
To verify the validity of the experiment, a positive control group was established concurrently in the whole experiment to evaluate whether the incubation system functioned properly, with the preparation method as follows: the compound to be tested was replaced with the positive substrate testosterone (200 μM in acetonitrile) from the phase I metabolic stability kit, and the other components of the incubation system and experimental method were the same as those of the experimental group.
The ratio of the chromatographic peak area of the compound to be tested to the chromatographic peak area of the testosterone-D3 (internal standard) was used as the calculated data. By taking the peak area ratio at time zero of the test compound as 100%, the remaining percentages were calculated by comparing the peak area ratio at each time point with the peak area ratio at time zero, and the natural logarithms of the remaining percentages of the substrate at each time point are then subjected to linear regression against the incubation times to obtain the slope k. Therefore, the in vitro metabolic half-life (T1/2) and intrinsic clearance (CLint) were calculated using the following formulas: […]

[3] = Pharmacokinetic analysis of oral administration to male rats; assay type: in vivo; details: oral gavage 12 mg/kg; for Blood drug concentration: individual rats 1-7; for concentration at 0.5 h / concentration at 1 h / concentration at 2 h / concentration at 3 h / concentration at 4 h / concentration at 5 h / concentration at 6 h / concentration at 8 h / concentration at 10 h / concentration at 12 h / concentration at 18 h / concentration at 24 h: male, SD, rat, plasma, po, 12 mg/kg
Description: Male SD rats (body weight: 230 g to 250 g) were purchased from BEIJING HFK BIOSCIENCE CO., LTD.

[4] = Pharmacokinetic analysis of tail vein administration in female rats; details: 3 mg/kg
Method: as §1
60 female SD rats were divided into two groups (Aintravenous and Bintravenous), with 30 rats per group (5 rats per blood collection time point). The drugs Aintravenous and Bintravenous were administered via tail vein injection at 3 mg/kg each (about 1.2 mL of drug solution). Blood was collected from the orbital venous plexus at time points (5 min, 30 min, 1 h, 2 h, 4 h, and 8 h) after administration, respectively, anticoagulated with heparin, and centrifuged, and then the plasma was separated and stored at −80° C. for later testing. At 8 h after blood collection, the animals were sacrificed, and the brain and liver tissues were taken and stored at −80° C. for later testing.
as §2, §3

[5] = female SD rats, tail vein, 8 h after administration

CC(=O)[C@H]1CC[C@H]2[C@@H]3CC[C@H]4C[C@H](O)CC[C@]4(C)[C@H]3CC[C@]12C [Allopregnanolone, 5α-pregnan-3α-ol-20-one, reference compound]
level of the administered compound in the liver tissue (for compound 1 the sentence prints: in the plasma) ([1]; female SD rats, oral administration, 8 h after administration): undetectable | level in plasma and brain tissue at all time points ([1]; female SD rats, oral gavage): undetectable | bioavailability ([1]; female, SD, rat, plasma, oral): 0% | half-life ([2]; liver microsomes, NADPH system, 37° C., read-out: T1/2 (in vitro metabolic half-life)): 2.17 min | microsomal CLint ([2]; liver microsomes, read-out: intrinsic clearance): 639 µL/min/mg | In vitro CLint ([2]; 37° C.): 639.28 μL/min/mg protein | k (slope of ln remaining percentage against incubation time) ([2]; 37° C.): −0.3196 | Blood drug concentration ([3]; male SD rats, 0.5 h): 0 ng/mL | level in the plasma at all time points ([3]; male SD rats, 30 min to 24 h): undetectable | Blood drug concentration ([3]; male SD rats, 1 h): 0 ng/mL | Blood drug concentration ([3]; male SD rats, 2 h): 0 ng/mL | Blood drug concentration ([3]; male SD rats, 3 h): 0 ng/mL | Blood drug concentration ([3]; male SD rats, 4 h): 0 ng/mL | Blood drug concentration ([3]; male SD rats, 5 h): 0 ng/mL | Blood drug concentration ([3]; male SD rats, 6 h): 0 ng/mL | Blood drug concentration ([3]; male SD rats, 8 h): 0 ng/mL | Blood drug concentration ([3]; male SD rats, 10 h): 0 ng/mL | Blood drug concentration ([3]; male SD rats, 12 h): 0 ng/mL | Blood drug concentration ([3]; male SD rats, 18 h): 0 ng/mL | Blood drug concentration ([3]; male SD rats, 24 h): 0 ng/mL | concentration at 0.5 h ([3]; 0.5 h, individual rats 1-7, read-out: Blood drug concentration): 0 ng/mL | concentration at 0.5 h ([3]; 0.5 h, mean of 7 rats, read-out: Blood drug concentration, Mean value): 0 ng/mL | concentration at 1 h ([3]; 1 h, individual rats 1-7, read-out: Blood drug concentration): 0 ng/mL | concentration at 1 h ([3]; 1 h, mean of 7 rats, read-out: Blood drug concentration, Mean value): 0 ng/mL | concentration at 2 h ([3]; 2 h, individual rats 1-7, read-out: Blood drug concentration): 0 ng/mL | concentration at 2 h ([3]; 2 h, mean of 7 rats, read-out: Blood drug concentration, Mean value): 0 ng/mL | concentration at 3 h ([3]; 3 h, individual rats 1-7, read-out: Blood drug concentration): 0 ng/mL | concentration at 3 h ([3]; 3 h, mean of 7 rats, read-out: Blood drug concentration, Mean value): 0 ng/mL | concentration at 4 h ([3]; 4 h, individual rats 1-7, read-out: Blood drug concentration): 0 ng/mL | concentration at 4 h ([3]; 4 h, mean of 7 rats, read-out: Blood drug concentration, Mean value): 0 ng/mL | concentration at 5 h ([3]; 5 h, individual rats 1-7, read-out: Blood drug concentration): 0 ng/mL | concentration at 5 h ([3]; 5 h, mean of 7 rats, read-out: Blood drug concentration, Mean value): 0 ng/mL | concentration at 6 h ([3]; 6 h, individual rats 1-7, read-out: Blood drug concentration): 0 ng/mL | concentration at 6 h ([3]; 6 h, mean of 7 rats, read-out: Blood drug concentration, Mean value): 0 ng/mL | concentration at 8 h ([3]; 8 h, individual rats 1-7, read-out: Blood drug concentration): 0 ng/mL | concentration at 8 h ([3]; 8 h, mean of 7 rats, read-out: Blood drug concentration, Mean value): 0 ng/mL | concentration at 10 h ([3]; 10 h, individual rats 1-7, read-out: Blood drug concentration): 0 ng/mL | concentration at 10 h ([3]; 10 h, mean of 7 rats, read-out: Blood drug concentration, Mean value): 0 ng/mL | concentration at 12 h ([3]; 12 h, individual rats 1-7, read-out: Blood drug concentration): 0 ng/mL | concentration at 12 h ([3]; 12 h, mean of 7 rats, read-out: Blood drug concentration, Mean value): 0 ng/mL | concentration at 18 h ([3]; 18 h, individual rats 1-7, read-out: Blood drug concentration): 0 ng/mL | concentration at 18 h ([3]; 18 h, mean of 7 rats, read-out: Blood drug concentration, Mean value): 0 ng/mL | concentration at 24 h ([3]; 24 h, individual rats 1-7, read-out: Blood drug concentration): 0 ng/mL | concentration at 24 h ([3]; 24 h, mean of 7 rats, read-out: Blood drug concentration, Mean value): 0 ng/mL | level of the administered compound in the liver ([4]; female SD rats, intravenous (tail vein), 8 h after administration): undetectable | concentration in brain tissue [4, 5]: undetectable | concentration in plasma [4, 5]: undetectable | clearance ([4]; female, SD, rat, plasma, iv): 109 mL/min/kg | half-life ([4]; female, SD, rat, plasma, iv): 52.2 min
